# Legend:
# Type in all cases: cell-based
# [1] = test system: A549 human lung cancer cells; test: cell viability assay (MTT); details: 24 h; for viability at 1 µg/mL: read-out: Validity (%) for sample concentrations (µg/mL) 1; for viability at 10 µg/mL: read-out: Validity (%) for sample concentrations (µg/mL) 10; for viability at 31.25 µg/mL: read-out: Validity (%) for sample concentrations (µg/mL) 31.25; for viability at 62.5 µg/mL: 62.50 µg/mL, read-out: Validity (%) for sample concentrations (µg/mL) 62.50; for viability at 125 µg/mL: read-out: Validity (%) for sample concentrations (µg/mL) 125; for viability at 250 µg/mL: read-out: Validity (%) for sample concentrations (µg/mL) 250; for viability at 500 µg/mL: read-out: Validity (%) for sample concentrations (µg/mL) 500; for viability at 1000 µg/mL: read-out: Validity (%) for sample concentrations (µg/mL) 1000
# P. aeruginosa = test: MIC by broth microdilution method (resazurin end point); details: Pseudomonas aeruginosa, 24 h at 37 °C
# Protocol: (§1) Determination of Minimum inhibitory concentrations (MIC) of flourene derivatives was done using broth microdilution method. The procedure involved preparation of twofold dilutions of the fluorene derivatives ranging from (500–7.8 μg/mL) in sterile Mueller–Hinton broth inside the wells of 96-well microplate (Sarstedt, Germany). The inoculums of test strains prepared from fresh overnight cultures were adjusted to 0.5 McFarland standards, which equals to 1–2 × 10^8 CFU/mL for bacteria, the procedure was done according to CLSI 2012 [42]. […] For this assay the positive control agents were vancomycin (range: 0.7–50 μg/mL), gentamicin (range: 0.15–10 μg/mL) and the negative control was 1% DMSO.
# (§2) For proper determination of the MIC end point resazurin dye has been used. A stock solution of resazurin sodium salt powder (Titan Biotech) was prepared at 0.02% (wt/vol) in distilled water, sterilized by filtration through a […] filter into a sterile light protected container then stored protected from light at 4 °C for up to 1 week, or at − […] for long term use, then 10–15% resazurin solution of the total volume in wells was added to each well and incubation for 1–4 h at 37 °C was done. A change in color from blue to pink indicates the growth of bacteria, and MIC was defined as the lowest concentration of the drug that prevented this change in color.
# E. coli = test: as above; details: Escherichia coli, 24 h at 37 °C
# Protocol: as §1, §2
# [2] = test system: Escherichia coli (E. coli), multidrug resistant clinical isolate; test: agar well diffusion assay; details: 24 h, 500 µg/mL of tested compound
# In short: (§3)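 Multidrug-resistant clinical isolates swabbed on Mueller–Hinton agar at about 1–5 × 10^5 CFU/mL; 0.5 cm wells received 50 μL compound at 500 μg/mL in 1% DMSO. Incubation 24 h, 37 °C for bacteria and C. albicans, 25 °C for Aspergillus; inhibition zone diameter measured in mm.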
# K. pneumoniae = test: MIC by broth microdilution method (resazurin end point); details: Klebsiella pneumoniae, 24 h at 37 °C
# Protocol: as §1, §2
# [3] = test system: Streptococcus pneumoniae (S. pneumoniae), multidrug resistant clinical isolate; test: agar well diffusion assay; details: S. pneumoniae; 500 µg/mL of tested compound; 24 h
# In short: as §3
# [4] = test system: methicillin-resistant Staphylococcus aureus (MRSA); test: agar well diffusion assay; details: 500 µg/mL of tested compound, 24 h
# In short: as §3
IC50 [1],MIC (P. aeruginosa),MIC (E. coli),MIC (K. pneumoniae),SMILES,viability at 1 µg/mL [1],viability at 10 µg/mL [1],viability at 31.25 µg/mL [1],viability at 62.5 µg/mL [1],viability at 125 µg/mL [1],viability at 250 µg/mL [1],viability at 500 µg/mL [1],viability at 1000 µg/mL [1],zone of inhibition at 500 µg/mL [2],Mean zone of inhibition [3],Mean zone of inhibition [4]
203 µg/mL,125 µg/mL,31.2 µg/mL,–,"O=C1C(Cl)C(c2cccs2)N1c1nc(-c2cc(Cl)cc3c2-c2ccc(Cl)cc2C3)cs1 (centres unmarked) [6k, 3-Chloro-1-(4-(2,7-dichloro-9H-fluoren-4-yl)thiazol-2-yl)-4-(thiophen-2-yl)azetidin-2-one]",90.8%,80.8%,76%,70.6%,55.4%,39.8%,28.7%,23%,14 mm,–,–
85 µg/mL,–,62.5 µg/mL,125 µg/mL,"O=C1C(Cl)C(c2ccc(Cl)cc2)N1c1nc(-c2cc(Cl)cc3c2-c2ccc(Cl)cc2C3)cs1 (centres unmarked) [6c, 3-Chloro-4-(4-chlorophenyl)-1-(4-(2,7-dichloro-9H-fluoren-4-yl)thiazol-2-yl)azetidin-2-one]",92.4%,80.7%,59.8%,54.2%,31.3%,25.1%,19.7%,17.7%,15 mm,–,–
117 µg/mL,–,–,–,"O=C1C(Cl)C(c2ccc(Br)cc2)N1c1nc(-c2cc(Cl)cc3c2-c2ccc(Cl)cc2C3)cs1 (centres unmarked) [6d, 4-(4-Bromophenyl)-3-chloro-1-(4-(2,7-dichloro-9H-fluoren-4-yl)thiazol-2-yl)azetidin-2-one]",97.9%,92.6%,77.2%,67.3%,49%,24.6%,20.4%,19.4%,–,no activity,no activity

# — article PMC7315563, “Bioactive fluorenes. Part III: 2,7-dichloro-9H-fluorene-based thiazolidinone and azetidinone analogues as anticancer and antimicrobial against multidrug resistant strains agents” (BMC Chemistry, 2020)
